pIC50: −log10 of the molar value. Read-outs that look alike come from different tables or passages of the source.
Key:
human V2 receptor = molecular target: T1, human V2 receptor (Homo sapiens, UniProt P30518); test: Cellular in vitro assay for determining vasopressin receptor activity, V2 receptor cell line (CHO, CRE-luciferase); format: cell-based; conditions: CHO cell line transfected with human V2 receptor, [Arg8]-vasopressin at EC50 concentration, read-out: IC50 hV2
T1 construct: expressed in transfected cells; host or cells: CHO K1 (ATCC) expressing firefly luciferase under a CRE-responsive promoter

human V1a receptor = molecular target: T2, human V1a receptor (Homo sapiens, UniProt P37288); test: Cellular in vitro assay for determining vasopressin receptor activity, V1a receptor cell line (CHO, aequorin luminescence); format: cell-based; conditions: for pIC50: CHO cell line transfected with human V1a receptor, [Arg]-vasopressin at EC50 concentration, read-out: IC50 hV1a; for ratio IC50 hV2/hV1a: selectivity ratio IC50 hV2 / IC50 hV1a
T2 construct: expressed in transfected cells; host or cells: CHO K1 (ATCC), also stably transfected with a modified aequorin
In short: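 Luminescence from reconstituted aequorin, reporting intracellular calcium release, was measured immediately after adding [Arg]-vasopressin at EC50 concentration to CHO K1 cells pretreated 10 minutes with graded compound concentrations. Inhibition gave IC50 values.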

T2 sequence (P37288 whole entry): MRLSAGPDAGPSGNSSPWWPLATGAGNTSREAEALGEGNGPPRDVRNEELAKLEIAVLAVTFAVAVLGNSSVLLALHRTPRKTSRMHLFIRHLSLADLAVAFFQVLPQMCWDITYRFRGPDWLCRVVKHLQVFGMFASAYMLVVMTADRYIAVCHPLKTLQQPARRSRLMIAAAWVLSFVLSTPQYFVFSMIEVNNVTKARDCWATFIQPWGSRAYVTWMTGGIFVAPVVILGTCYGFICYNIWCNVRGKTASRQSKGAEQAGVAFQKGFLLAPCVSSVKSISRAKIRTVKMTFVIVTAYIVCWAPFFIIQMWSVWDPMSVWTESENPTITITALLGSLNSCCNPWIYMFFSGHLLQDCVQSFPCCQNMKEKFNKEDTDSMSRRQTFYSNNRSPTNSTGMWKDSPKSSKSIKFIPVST
T1 sequence (P30518 whole entry): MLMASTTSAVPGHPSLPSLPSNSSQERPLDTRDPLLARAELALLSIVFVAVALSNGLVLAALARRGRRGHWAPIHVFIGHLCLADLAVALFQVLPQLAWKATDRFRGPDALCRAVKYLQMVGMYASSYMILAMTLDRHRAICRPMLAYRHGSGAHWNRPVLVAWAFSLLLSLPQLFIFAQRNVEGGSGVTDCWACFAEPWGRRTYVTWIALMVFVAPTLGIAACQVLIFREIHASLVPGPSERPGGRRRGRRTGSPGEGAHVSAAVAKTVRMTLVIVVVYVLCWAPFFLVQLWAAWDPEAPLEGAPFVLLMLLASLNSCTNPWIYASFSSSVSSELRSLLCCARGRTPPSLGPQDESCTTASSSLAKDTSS

pIC50 (human V2 receptor; 3 hours)	pIC50 (human V1a receptor)	ratio IC50 hV2/hV1a (human V1a receptor)	pIC50 (human V2 receptor)	SMILES
5.21	7.78	369.7	–	O=C(NC1CC1)c1cccc(Cl)c1-n1cnc(Cn2nc(-c3ccc(Cl)cc3)n(C[C@@H](O)C(F)(F)F)c2=O)n1 [Example 393, 3-Chloro-2-[3-({3-(4-chlorophenyl)-5-oxo-4-[(2R)-3,3,3-trifluoro-2-hydroxypropyl]-4,5-dihydro-1H-1,2,4-triazol-1-yl}methyl)-1H-1,2,4-triazol-1-yl]-N-cyclopropylbenzamide]
5.36	6.53	14.9	–	O=C(NCC1CC1)c1cccc(Cl)c1-n1cnc(Cn2nc(-c3ccc(Cl)cc3)n(C[C@@H](O)C(F)(F)F)c2=O)n1 [Example 394, 3-Chloro-2-[3-({3-(4-chlorophenyl)-5-oxo-4-[(2R)-3,3,3-trifluoro-2-hydroxypropyl]-4,5-dihydro-1H-1,2,4-triazol-1-yl}methyl)-1H-1,2,4-triazol-1-yl]-N-(cyclopropylmethyl)benzamide]
4.49	6.52	106.3	–	NC(=O)[C@@H]1CC(F)(F)CN1C(=O)c1cccc(Cl)c1-n1cnc(Cn2nc(-c3ccc(Cl)cc3)n(C[C@@H](O)C(F)(F)F)c2=O)n1 [Example 396, 1-{3-Chloro-2-[3-({3-(4-chlorophenyl)-5-oxo-4-[(2R)-3,3,3-trifluoro-2-hydroxypropyl]-4,5-dihydro-1H-1,2,4-triazol-1-yl}methyl)-1H-1,2,4-triazol-1-yl]benzoyl}-4,4-difluoro-L-prolinamide]
–	6.36	50.0	4.66	O=C(c1cccc(Cl)c1-n1cnc(Cn2nc(-c3ccc(Cl)cc3)n(C[C@@H](O)C(F)(F)F)c2=O)n1)N1CCC(F)(F)C1 [Example 398, 2-[(1-{2-Chloro-6-[(3,3-difluoropyrrolidin-1-yl)carbonyl]phenyl}-1H-1,2,4-triazol-3-yl)methyl]-5-(4-chlorophenyl)-4-[(2R)-3,3,3-trifluoro-2-hydroxypropyl]-2,4-dihydro-3H-1,2,4-triazol-3-one]
–	6.72	16.6	5.50	O=C(NC1CC(F)(F)C1)c1cccc(Cl)c1-n1cnc(Cn2nc(-c3ccc(Cl)cc3)n(C[C@@H](O)C(F)(F)F)c2=O)n1 [Example 399, 3-Chloro-2-[3-({3-(4-chlorophenyl)-5-oxo-4-[(2R)-3,3,3-trifluoro-2-hydroxypropyl]-4,5-dihydro-1H-1,2,4-triazol-1-yl}methyl)-1H-1,2,4-triazol-1-yl]-N-(3,3-difluorocyclobutyl)benzamide]
–	6.62	41.5	5.00	O=C(c1cccc(Cl)c1-n1cnc(Cn2nc(-c3ccc(Cl)cc3)n(C[C@@H](O)C(F)(F)F)c2=O)n1)N1CCCCC1 [Example 401, 5-(4-Chlorophenyl)-2-({1-[2-chloro-6-(piperidin-1-ylcarbonyl)phenyl]-1H-1,2,4-triazol-3-yl}methyl)-4-[(2R)-3,3,3-trifluoro-2-hydroxypropyl]-2,4-dihydro-3H-1,2,4-triazol-3-one]
–	6.36	73.6	4.49	O=C(c1cccc(Cl)c1-n1cnc(Cn2nc(-c3ccc(Cl)cc3)n(C[C@@H](O)C(F)(F)F)c2=O)n1)N1CCOCC1 [Example 402, 2-({1-[2-Chloro-6-(morpholin-4-ylcarbonyl)phenyl]-1H-1,2,4-triazol-3-yl}methyl)-5-(4-chlorophenyl)-4-[(2R)-3,3,3-trifluoro-2-hydroxypropyl]-2,4-dihydro-3H-1,2,4-triazol-3-one]
–	7.13	77.9	5.24	O=C(NC1(C(F)(F)F)CC1)c1cccc(Cl)c1-n1cnc(Cn2nc(-c3ccc(Cl)cc3)n(C[C@@H](O)C(F)(F)F)c2=O)n1 [Example 403, 3-Chloro-2-[3-({3-(4-chlorophenyl)-5-oxo-4-[(2R)-3,3,3-trifluoro-2-hydroxypropyl]-4,5-dihydro-1H-1,2,4-triazol-1-yl}methyl)-1H-1,2,4-triazol-1-yl]-N-[1-(trifluoromethyl)cyclopropyl]benzamide]
